Test results reported in paper PMC8887546, “Design and Synthesis of Brain Penetrant Glycopeptide Analogues of PACAP With Neuroprotective Potential for Traumatic Brain Injury and Parkinsonism” (Frontiers in drug discovery, 2022).
Read-outs that look alike come from different tables or passages of the source.

What was measured:
human VPAC1 receptor = biological target: T1, human VPAC1 receptor (Homo sapiens, UniProt P32241); experiment: cAMP stimulation in CHO cells expressing VPAC1; type: cell-based
T1 construct: expressed in transfected cells; host or cells: CHO cells (G418 selection)
T1 sequence (P32241 31-457): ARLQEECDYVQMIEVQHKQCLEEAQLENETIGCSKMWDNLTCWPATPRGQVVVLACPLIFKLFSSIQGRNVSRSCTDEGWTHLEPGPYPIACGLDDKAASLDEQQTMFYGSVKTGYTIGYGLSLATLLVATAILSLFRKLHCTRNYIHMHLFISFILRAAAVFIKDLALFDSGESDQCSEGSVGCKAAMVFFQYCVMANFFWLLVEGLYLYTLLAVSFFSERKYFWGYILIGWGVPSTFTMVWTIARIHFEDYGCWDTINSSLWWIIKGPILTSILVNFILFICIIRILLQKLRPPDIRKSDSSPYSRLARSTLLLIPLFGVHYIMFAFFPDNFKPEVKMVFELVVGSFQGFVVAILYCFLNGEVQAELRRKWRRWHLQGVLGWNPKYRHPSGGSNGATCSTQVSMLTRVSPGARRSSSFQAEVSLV

human PAC1 receptor = biological target: T2, human PAC1 receptor (Homo sapiens, UniProt P41586); experiment: cAMP stimulation in CHO cells expressing PAC1; type: cell-based; settings: for Emax: CHO
T2 construct: expressed in transfected cells; host or cells: CHO cells (G418 selection)
T2 sequence (P41586 21-468): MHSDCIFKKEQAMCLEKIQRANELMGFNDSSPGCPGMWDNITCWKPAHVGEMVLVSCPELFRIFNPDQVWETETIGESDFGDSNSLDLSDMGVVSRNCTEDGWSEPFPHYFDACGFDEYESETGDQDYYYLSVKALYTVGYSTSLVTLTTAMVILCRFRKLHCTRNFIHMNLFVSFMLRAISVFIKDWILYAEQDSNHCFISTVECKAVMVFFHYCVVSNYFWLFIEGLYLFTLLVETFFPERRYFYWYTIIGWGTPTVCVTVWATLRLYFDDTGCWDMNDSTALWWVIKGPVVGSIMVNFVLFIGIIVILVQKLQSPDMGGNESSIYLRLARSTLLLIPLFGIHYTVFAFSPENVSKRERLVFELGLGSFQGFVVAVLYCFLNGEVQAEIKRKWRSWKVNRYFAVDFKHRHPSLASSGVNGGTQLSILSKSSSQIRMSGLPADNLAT
Experimental: Briefly, human PAC1, VPAC1, and VPAC2 receptors expressed in CHO cells were used for all experiments. Cells were grown in 50:50 DMEM-F12 medium with 10% heat-inactivated fetal bovine serum, 1X penicillin-streptomycin supplement, and 500 μg/ml G418 (neomycin) to maintain selection (all from ThermoFisher) at 37°C with 5% CO2 atmosphere. For the cAMP assay, cells were seeded at 20,000 cells/well in a 96 well plate, recovered overnight, then serum starved for 4 h. The cells were then incubated with 500 μM IBMX for 20 min, followed by agonist concentration curves in 500 μM IBMX media for 10 min. The reaction was terminated, boiled, then collected, followed by competition with 7 μg of bovine protein kinase A (Sigma-Aldrich) and ∼1 pmol of ^3H-cAMP (PerkinElmer). The assay was incubated at room temp for 1 h, then collected onto GF/B filter plates and the data read using a MicroBeta2 scintillation counter (PerkinElmer).

For CCC[C@H](NC(=O)[C@H](CCC(N)=O)NC(=O)[C@H](CCCCN)NC(=O)[C@H](CCCNC(=N)N)NC(=O)[C@H](Cc1ccc(O)cc1)NC(=O)[C@H](CCCNC(=N)N)NC(=O)[C@H](CO)NC(=O)[C@H](Cc1ccc(O)cc1)NC(=O)[C@H](CO)NC(=O)[C@H](CC(=O)O)NC(=O)[C@H](C)NC(=O)[C@H](Cc1ccccc1)NC(=O)[C@@H](NC(=O)CNC(=O)[C@H](CC(=O)O)NC(=O)[C@@H](CO)NC(=O)[C@@H](N)Cc1c[nH]cn1)[C@@H](C)CC)C(=O)N[C@@H](C)C(=O)N[C@H](C(=O)N[C@@H](CCCCN)C(=O)N[C@@H](CCCCN)C(=O)N[C@@H](Cc1ccc(O)cc1)C(=O)N[C@@H](CC(C)C)C(=O)N[C@@H](C)C(=O)N[C@@H](C)C(=O)N[C@@H](CO[C@@H]1O[C@H](CO)[C@@H](O)[C@H](O)[C@H]1O)C(=O)N[C@@H](CC(C)C)C(N)=O)C(C)C [CRA3005], the Emax (human VPAC1 receptor; CHO; read-out: VPAC1 Emax) was 78% and the EC50 (human VPAC1 receptor; read-out: VPAC1 EC50) was 1620 nM.
Compound CCC[C@H](NC(=O)[C@H](CCC(N)=O)NC(=O)[C@H](CCCCN)NC(=O)[C@H](CCCNC(=N)N)NC(=O)[C@H](Cc1ccc(O)cc1)NC(=O)[C@H](CCCNC(=N)N)NC(=O)[C@H](CO)NC(=O)[C@H](Cc1ccc(O)cc1)NC(=O)[C@H](CO)NC(=O)[C@H](CC(=O)O)NC(=O)[C@@H](NC(=O)[C@H](Cc1ccccc1)NC(=O)[C@@H](CCC)NC(=O)CNC(=O)[C@H](CC(=O)O)NC(=O)[C@@H](CO)NC(=O)[C@@H](N)Cc1c[nH]cn1)[C@@H](C)O)C(=O)N[C@@H](C)C(=O)N[C@H](C(=O)N[C@@H](CCCCN)C(=O)N[C@@H](CCCCN)C(=O)N[C@@H](Cc1ccc(O)cc1)C(=O)N[C@@H](CC(C)C)C(=O)N[C@@H](C)C(=O)N[C@@H](C)C(=O)N[C@H](C(=O)N[C@@H](CC(C)C)C(=O)N[C@@H](CO[C@@H]1O[C@H](CO)[C@@H](O)[C@H](O)[C@H]1O)C(N)=O)C(C)C)C(C)C [CRA3020] has an Emax (human VPAC1 receptor; CHO; read-out: VPAC1 Emax) of 78% and an Emax (human PAC1 receptor) of 97%.
CC[C@H](C)[C@H](NC(=O)CNC(=O)[C@H](CC(=O)O)NC(=O)[C@@H](CO)NC(=O)[C@@H](N)Cc1c[nH]cn1)C(=O)N[C@@H](Cc1ccccc1)C(=O)N[C@H](C(=O)N[C@@H](CC(=O)O)C(=O)N[C@@H](CO)C(=O)N[C@@H](Cc1ccc(O)cc1)C(=O)N[C@@H](CO)C(=O)N[C@@H](CCCNC(=N)N)C(=O)N[C@@H](Cc1ccc(O)cc1)C(=O)N[C@@H](CCCNC(=N)N)C(=O)N[C@@H](CCCCN)C(=O)N[C@@H](CCC(N)=O)C(=O)N[C@@H](CC(C)C)C(=O)N[C@@H](C)C(=O)N[C@H](C(=O)N[C@@H](CCCCN)C(=O)N[C@@H](CCCCN)C(=O)N[C@@H](Cc1ccc(O)cc1)C(=O)N[C@@H](CC(C)C)C(=O)N[C@@H](C)C(=O)N[C@@H](C)C(=O)N[C@H](C(=O)N[C@@H](CC(C)C)C(N)=O)C(C)C)C(C)C)[C@@H](C)O [2LS72–3] showed an EC50 (human PAC1 receptor) of 48.6 ± 32 nM and an Emax (human PAC1 receptor) of 95.3 ± 8.1%.
Compound CCC[C@H](NC(=O)[C@H](CCC(N)=O)NC(=O)[C@H](CCCCN)NC(=O)[C@H](CCCNC(=N)N)NC(=O)[C@H](Cc1ccc(O)cc1)NC(=O)[C@H](CCCNC(=N)N)NC(=O)[C@H](CO)NC(=O)[C@H](Cc1ccc(O)cc1)NC(=O)[C@H](CO)NC(=O)[C@H](CC(=O)O)NC(=O)[C@H](C)NC(=O)[C@H](Cc1ccccc1)NC(=O)[C@@H](NC(=O)CNC(=O)[C@H](CC(=O)O)NC(=O)[C@@H](CO)NC(=O)[C@@H](N)Cc1c[nH]cn1)[C@@H](C)CC)C(=O)N[C@@H](C)C(=O)N[C@H](C(=O)N[C@@H](CCCCN)C(=O)N[C@@H](CCCCN)C(=O)N[C@@H](Cc1ccc(O)cc1)C(=O)N[C@@H](CC(C)C)C(=O)N[C@@H](C)C(=O)N[C@@H](C)C(=O)N[C@H](C(=O)N[C@@H](CO[C@@H]1O[C@H](CO)[C@@H](O)[C@H](O)[C@H]1O)C(N)=O)C(C)C)C(C)C [CRA3004] has an EC50 (human VPAC1 receptor) of 1370 nM and an Emax (human VPAC1 receptor; CHO, read-out: VPAC1 Emax) of 85%.
Compound CC[C@H](C)[C@H](NC(=O)CNC(=O)[C@H](CC(=O)O)NC(=O)[C@H](CO)NC(=O)[C@@H](N)Cc1c[nH]cn1)C(=O)N[C@@H](Cc1ccccc1)C(=O)N[C@H](C(=O)N[C@@H](CC(=O)O)C(=O)N[C@@H](CO)C(=O)N[C@@H](Cc1ccc(O)cc1)C(=O)N[C@@H](CO)C(=O)N[C@@H](CCCNC(=N)N)C(=O)N[C@@H](Cc1ccc(O)cc1)C(=O)N[C@@H](CCCNC(=N)N)C(=O)N[C@@H](CCCCN)C(=O)N[C@@H](CCC(N)=O)C(=O)N[C@@H](CC(C)C)C(=O)N[C@@H](C)C(=O)N[C@H](C(=O)N[C@@H](CCCCN)C(=O)N[C@@H](CCCCN)C(=O)N[C@@H](Cc1ccc(O)cc1)C(=O)N[C@@H](CC(C)C)C(=O)N[C@@H](C)C(=O)N[C@@H](C)C(=O)N[C@H](C(=O)N[C@@H](CC(C)C)C(=O)N[C@@H](CO[C@@H]1O[C@H](CO)[C@@H](O[C@@H]2O[C@H](CO)[C@H](O)[C@H](O)[C@H]2O)[C@H](O)[C@H]1O)C(N)=O)C(C)C)C(C)C)[C@@H](C)O [Compound 2LS80Lact] has an Emax (human PAC1 receptor) of 144 ± 20.7%.
CC[C@H](C)[C@H](NC(=O)CNC(=O)[C@H](CC(=O)O)NC(=O)[C@H](CO)NC(=O)[C@@H](N)Cc1c[nH]cn1)C(=O)N[C@@H](Cc1ccccc1)C(=O)N[C@H](C(=O)N[C@@H](CC(=O)O)C(=O)N[C@@H](CO)C(=O)N[C@@H](Cc1ccc(O)cc1)C(=O)N[C@@H](CO)C(=O)N[C@@H](CCCNC(=N)N)C(=O)N[C@@H](Cc1ccc(O)cc1)C(=O)N[C@@H](CCCNC(=N)N)C(=O)N[C@@H](CCCCN)C(=O)N[C@@H](CCC(N)=O)C(=O)N[C@@H](CC(C)C)C(=O)N[C@@H](C)C(=O)N[C@H](C(=O)N[C@@H](CCCCN)C(=O)N[C@@H](CCCCN)C(=O)N[C@@H](Cc1ccc(O)cc1)C(=O)N[C@@H](CC(C)C)C(=O)N[C@@H](C)C(=O)N[C@@H](C)C(=O)N[C@H](C(=O)N[C@@H](CC(C)C)C(N)=O)C(C)C)C(C)C)[C@@H](C)O [2LS72–2] was tested, and the EC50 (human PAC1 receptor) was 90.7 nM and the Emax (human PAC1 receptor) was 74.3 ± 9.7%.
With CCC[C@H](NC(=O)[C@H](CCC(N)=O)NC(=O)[C@H](CCCCN)NC(=O)[C@H](CCCNC(=N)N)NC(=O)[C@H](Cc1ccc(O)cc1)NC(=O)[C@H](CCCNC(=N)N)NC(=O)[C@H](CO)NC(=O)[C@H](Cc1ccc(O)cc1)NC(=O)[C@H](CO)NC(=O)[C@H](CC(=O)O)NC(=O)[C@@H](NC(=O)[C@H](Cc1ccccc1)NC(=O)[C@@H](NC(=O)CCCNC(=O)[C@H](CC(=O)O)NC(=O)[C@@H](CO)NC(=O)[C@@H](N)Cc1c[nH]cn1)[C@@H](C)CC)[C@@H](C)O)C(=O)N[C@@H](C)C(=O)N[C@H](C(=O)N[C@@H](CCCCN)C(=O)N[C@@H](CCCCN)C(=O)N[C@@H](Cc1ccc(O)cc1)C(=O)N[C@@H](CC(C)C)C(=O)N[C@@H](C)C(=O)N[C@@H](C)C(=O)N[C@H](C(=O)N[C@@H](CC(C)C)C(=O)N[C@@H](CO[C@@H]1O[C@H](CO)[C@@H](O)[C@H](O)[C@H]1O)C(N)=O)C(C)C)C(C)C [CRA3006] the Emax (human VPAC1 receptor; CHO; read-out: VPAC1 Emax) was 103% and the Emax (human PAC1 receptor) was 78%.
PACAP6–38 [reference compound] was tested, and the “Antagonism of PAC1” value (human PAC1 receptor; cAMP assay in CHO cells) was “unable to demonstrate antagonism”.
